Test [1] has as its target T1, hFXR-LBD (FXR-GAL4 chimeric receptor) (Homo sapiens, UniProt Q96RI1).
T1 construct: host or cells: HEK293T
T1 sequence (Q96RI1 262-486 limits assumed): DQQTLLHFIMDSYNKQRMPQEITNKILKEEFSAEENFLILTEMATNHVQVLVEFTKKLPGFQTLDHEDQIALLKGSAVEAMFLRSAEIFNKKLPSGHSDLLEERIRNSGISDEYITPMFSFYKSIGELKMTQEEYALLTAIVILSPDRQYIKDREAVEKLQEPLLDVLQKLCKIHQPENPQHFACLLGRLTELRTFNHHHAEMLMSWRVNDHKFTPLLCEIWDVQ
Briefly: FXR Transactivation Assay (GAL4 luciferase reporter in HEK293T cells). In kind it is cell-based. The procedure: FXR Transactivation Assay
The present compounds were tested to assess their ability to stimulate FXR transactivation activity. The hFXR-LBD, coding sequence was inserted into the pBIND expression vector (Promega, E1581) to express FXR-GAL4 binding domain chimeric receptors. This expression vector and reporter vector (pGL4.35 which carry a stably integrated GAL4 promoter driven luciferase reporter gene) were co-transfected into HEK293T host cells. Upon agonist binding to the corresponding FXR-GAL4 chimeric receptor, the chimeric receptor binds to the GAL4 binding sites and stimulates the reporter gene.
All the working stock were shake for 5 min on plate shaker (QILINBEIER). Second, all cells were cultured as ATCC recommended. HEK293T cells were assayed in exponential growth phase. Removed culture medium from the flask and rinsed cells with PBS. Added TrypLE solution to the flask and make cells detach. Next, cells were washed once with complete growth medium. Then, cells were pelleted and washed twice with PBS to remove phenol red and resuspend them in medium to a proper concentration. Only cells with viability greater than 90% were used for assays. Seeded 6×10^6 HEK293T cells into a 100 mm dish and incubated at 37° C. under 5% CO2 atmosphere for 16 h. Third, Trans-IT reagent and Opti-MEM mix by inversion and incubate 5 min at room temperature. The cell transfection was performed by mixing DNA and the reagent mixture, as well as 6 μg GAL4-FXR plasmid or 2 μg pGL4.35 luciferase plasmid, respectively. The reagent mixture was added to a 100 mm dish and incubated for 4-7 hrs at 37° C. under 5% CO2 atmosphere. Fourth, transferred 75 nl compound dilutions into 384-well assay plates (PerkinElmer) and seeded HEK293T cells at 17,000 cells/well using phenol red-free DMEM containing 5% charcoal/dextran-treated FBS. Then, cells were incubated for 16-20 h at 37° C. under 5% CO2 atmosphere. Finally, added 25 μl Steady-Glo™ Luciferase Assay Reagent into each well of 384-well assay plate, and then shake plate for 5 min protected from light on a plate shaker. Then, the luminescence value was read on Evision 2104 plate reader (PerkinElmer).
The activity ratio was calculated as follow: […]
RLU: Resulting Luminescence
RLUpositive: The average RLU for the positive controls across the plate.
RLUvehicle: The average RLU for negative controls across the plate.
(§1) EC50 was calculated by fitting % Activity values and log of compound concentrations to nonlinear regression (dose response-variable slope) with GraphPad 5.0.
(§2) X: log of compound concentration.
Background: Reporter assays use an easily measured gene product as a stand-in for the process of interest.

The next test concerns the target T2, FXR LBD, GST (Homo sapiens, UniProt Q96RI1).
T2 construct: FXR LBD, GST; purchased Invitrogen PV4834
T2 sequence (Q96RI1 262-486 limits assumed): T1 sequence (Q96RI1 262-486 limits assumed)
Briefly: FXR Binding Assay (TR-FRET, Fluorescein-SRC2-2 coactivator peptide). To be noted: for Emax: % Activity relative to positive control, read-out: Pct Effect (Emax %); for EC50: TR-FRET FXR LBD coactivator recruitment. The procedure: The interaction between the present compounds and FXR are evaluated by Time-Resolved Fluorescence Resonance Energy Transfer (TR-FRET) competition assay. FRET describes a radiation-free energy transfer between two chromophores: a donor fluorophore in its excited state can transfer energy to an acceptor fluorophore in close proximity (typically <10 nm). In contrast to standard FRET, TR-FRET unites time-resolved fluorescence (TRF) and the FRET principle, TRF use a long-lifetime lanthanide chelate as the donor species, while lanthanide chelates are unique in that their excited-state lifetime can be on the order of a millisecond or longer. Suitable neighbors for FRET are known in the art and can be obtained.
The assay was performed in following steps: first, prepared a) 1 mM compounds (100×) in DMSO; b) reaction buffer containing 1× buffer G with 10 mM DTT; c) 4×FXR LBD (20 nM) in 1× chilled buffer G. Second, performed 3-fold serial dilution of 1 mM test compounds using DMSO from 1 mM, 10 doses in a 96-well plate (249944, Nunc). Then, used complete buffer G to dilute each 100× compounds serial dilution to 2×. Third, added 10 μl 2× compound serial dilution into 384-well plate (3677, Corning). Then, added 5 μl FXR LBD into the assay plate. Prepared a solution containing 2 μM fluorescein-SRC2-2 (4×) and 20 nM Tb anti-GST antibody (4×) in buffer G at room temperature and started the reaction by adding 5 μl the above solution into each well of the assay plate. Centrifuged the assay plates at 1000 g for 1 min and then incubated at room temperature for lhr protected from light. Finally, the plate was read at wavelengths of 520 nm and 495 nm on Envision 2104 plate reader (PerkinElmer).
A ratio (Ratio520 nm/495 nm−Ratiobackground) was calculated for each well. The activity ratio was calculated as follow: […]
Ratiopositive: The average ratio for the positive control across the plate.
Ratiovehicle: The average ratio for negative controls across the plate.
as §1, §2
(In general: TR-FRET usually uses a lanthanide donor and a delayed reading to cut background.)

Molecules are shown by their SMILES.

One may read the EC50 as the concentration at which the effect is half-maximal. Higher therefore signals weaker potency. By Emax is commonly meant the greatest response seen or fitted, relative to the assay's reference. Turning to `O=C(O)c1ccc2nc(N3CCN(CCc4c(-c5c(Cl)cccc5Cl)noc4C4CC4)CC3)sc2c1` [Example I4, 2-(4-(2-(5-cyclopropyl-3-(2,6-dichlorophenyl)isoxazol-4-yl)ethyl)piperazin-1-yl)benzo[d]thiazole-6-carboxylic Acid], the EC50 in test [1] was determined as 1500 nM; on FXR LBD, GST, 244 nM. Also, the maximal response (Emax) on FXR LBD, GST came to 89.8%.

In turn, `O=C(O)c1cc(F)c2nc(N3CCN(CCc4c(-c5ccccc5OC(F)(F)F)noc4C4CC4)CC3)sc2c1` [Example I5, 2-(4-(2-(5-cyclopropyl-3-(2-(trifluoromethoxy)phenyl)isoxazol-4-yl)ethyl)piperazin-1-yl)-4-fluorobenzo[d]thiazole-6-carboxylic Acid] had an EC50 in test [1] of 2380 nM. At FXR LBD, GST, the Emax was 116% and a half-maximal response (EC50) required 297 nM.

In turn, `O=C(O)c1ccc2cc(N3CCN(CCc4c(-c5c(Cl)cccc5Cl)noc4C4CC4)CC3)ccc2n1` [Example I6, 6-(4-(2-(5-cyclopropyl-3-(2,6-dichlorophenyl)isoxazol-4-yl)ethyl)piperazin-1-yl)quinoline-2-carboxylic Acid] displayed an EC50 in test [1] of 459 nM. Also, at FXR LBD, GST, the Emax worked out at 142% and a half-maximal effect (EC50) was put at 118 nM.

In the case of `Cn1cc(C(=O)O)c2ccc(N3CCCN(CCc4c(-c5c(Cl)cccc5Cl)noc4C4CC4)CC3)cc21` [Example I7, 6-(4-(2-(5-cyclopropyl-3-(2,6-dichlorophenyl)isoxazol-4-yl)ethyl)-1,4-diazepan-1-yl)-1-methyl-1H-indole-3-carboxylic Acid], the midpoint of the response in test [1], the EC50, lay at 743 nM. At FXR LBD, GST, the Emax amounted to 98.1% and the EC50 was 25 nM.

As for `CC1CN(c2ccc3c(C(=O)O)cn(C)c3c2)CCN1CCc1c(-c2c(Cl)cccc2Cl)noc1C1CC1` (stereo not drawn) [Example I8, 6-(4-(2-(5-cyclopropyl-3-(2,6-dichlorophenyl)isoxazol-4-yl)ethyl)-3-methylpiperazin-1-yl)-1-methyl-1H-indole-3-carboxylic Acid], the midpoint of the response in test [1], the EC50, lay at 138 nM. Also, on FXR LBD, GST, the Emax is 202% and the concentration giving a half-maximal response (EC50) was found to be 94 nM.

In test [1], `Cn1cc(C(=O)O)c2ccc(N3CCN(CCc4c(-c5c(F)cccc5Cl)noc4C4CC4)CC3)cc21` [Example I10, 6-(4-(2-(3-(2-chloro-6-fluorophenyl)-5-cyclopropylisoxazol-4-yl)ethyl)piperazin-1-yl)-1-methyl-1H-indole-3-carboxylic Acid] gave an EC50 of 524 nM. On FXR LBD, GST, the Emax worked out at 173% and it took 728 nM to reach a half-maximal effect (EC50).

`CC1CN(CCc2c(-c3c(Cl)cccc3Cl)noc2C2CC2)CCN1c1ccc2c(C(=O)O)cn(C)c2c1` (stereo not drawn) [Example I12, 6-(4-(2-(5-cyclopropyl-3-(2,6-dichlorophenyl)isoxazol-4-yl)ethyl)-2-methylpiperazin-1-yl)-1-methyl-1H-indole-3-carboxylic Acid] showed an EC50 in test [1] of 129 nM. Besides, at FXR LBD, GST, the Emax worked out at 147% and the response was half-maximal at 133 nM (EC50).

In turn, `O=C(O)c1ccc(N2CCN(CCc3c(-c4c(Cl)cccc4Cl)noc3C3CC3)CC2)cc1` [Example I14, 4-(4-(2-(5-cyclopropyl-3-(2,6-dichlorophenyl)isoxazol-4-yl)ethyl)piperazin-1-yl)benzoic Acid] displayed an EC50 in test [1] of 912 nM. Also, at FXR LBD, GST, the Emax was found to be 142% and the midpoint of the response, the EC50, lay at 655 nM.

On to `O=C(O)c1c[nH]c2cc(N3CCN(CCc4c(-c5c(Cl)cccc5Cl)noc4C4CC4)CC3)ccc12` [Example I15, 6-(4-(2-(5-cyclopropyl-3-(2,6-dichlorophenyl)isoxazol-4-yl)ethyl)piperazin-1-yl)-1H-indole-3-carboxylic Acid], for which a half-maximal response in test [1] (EC50) required 667 nM. In addition, at FXR LBD, GST, the Emax was 168% and the midpoint of the response, the EC50, lay at 419 nM.

On to `Cn1nc(C(=O)O)c2ccc(N3CCN(CCc4c(-c5c(Cl)cccc5Cl)noc4C4CC4)CC3)cc21` [Example I17, 6-(4-(2-(5-cyclopropyl-3-(2,6-dichlorophenyl)isoxazol-4-yl)ethyl)piperazin-1-yl)-1-methyl-1H-indazole-3-carboxylic Acid], for which the concentration for a half-maximal effect (EC50) came out at 1230 nM in test [1] and 46 nM at FXR LBD, GST. Moreover, the Emax at FXR LBD, GST amounted to 131%.

On to `Cn1nc2cc(N3CCN(CCc4c(-c5c(Cl)cccc5Cl)noc4C4CC4)CC3)ccc2c1C(=O)O` [Example I18, 6-(4-(2-(5-cyclopropyl-3-(2,6-dichlorophenyl)isoxazol-4-yl)ethyl)piperazin-1-yl)-2-methyl-2H-indazole-3-carboxylic Acid], for which, in test [1], the response was half-maximal at 436 nM (EC50). Moreover, at FXR LBD, GST, the Emax came out at 142% and the EC50 stood at 46 nM.

For `Cn1cc(C(=O)O)c2ccc(N3CCN(CCc4c(-c5ccccc5OC(F)(F)F)noc4C4CC4)CC3)cc21` [Example I20, 6-(4-(2-(5-cyclopropyl-3-(2-(trifluoromethoxy)phenyl)isoxazol-4-yl)ethyl)piperazin-1-yl)-1-methyl-1H-indole-3-carboxylic Acid], the 50% effective concentration (EC50) in test [1] was 906 nM. At FXR LBD, GST, the maximal response (Emax) came out at 193% and the 50% effective concentration (EC50) was 450 nM.

As for `COc1cccc(Cl)c1-c1noc(C2CC2)c1CCN1CCN(c2ccc3c(C(=O)O)cn(C)c3c2)CC1` [Example I21, 6-(4-(2-(3-(2-chloro-6-methoxyphenyl)-5-cyclopropylisoxazol-4-yl)ethyl)piperazin-1-yl)-1-methyl-1H-indole-3-carboxylic Acid], the 50% effective concentration (EC50) in test [1] is 2860 nM; at FXR LBD, GST, 890 nM. The Emax at FXR LBD, GST was 85.1%.

On to `Cc1cccc(Cl)c1-c1noc(C2CC2)c1CCN1CCN(c2ccc3c(C(=O)O)cn(C)c3c2)CC1` [Example I22, 6-(4-(2-(3-(2-chloro-6-methylphenyl)-5-cyclopropylisoxazol-4-yl)ethyl)piperazin-1-yl)-1-methyl-1H-indole-3-carboxylic Acid], for which the half-maximal effective concentration (EC50) in test [1] came out at 634 nM. Further, at FXR LBD, GST, the Emax was found to be 163% and the 50% effective concentration (EC50) was 162 nM.

As for `CC(CN1CCN(c2ccc3c(C(=O)O)cn(C)c3c2)CC1)c1c(-c2c(Cl)cccc2Cl)noc1C1CC1` (stereo not drawn) [Example I24, 6-(4-(2-(5-cyclopropyl-3-(2,6-dichlorophenyl)isoxazol-4-yl)propyl)piperazin-1-yl)-1-methyl-1H-indole-3-carboxylic Acid], the concentration for a half-maximal effect (EC50) in test [1] came out at 1860 nM; at FXR LBD, GST it was 422 nM. For the same molecule, at FXR LBD, GST, the maximum response (Emax) was 89.8%.

Take `Cn1cc(C(=O)O)c2ccc(N3CCN(CCc4c(-c5c(Cl)cccc5Cl)noc4C4CC4)CC3(C)C)cc21` [Example I25, 6-(4-(2-(5-cyclopropyl-3-(2,6-dichlorophenyl)isoxazol-4-yl)ethyl)-2,2-dimethylpiperazin-1-yl)-1-methyl-1H-indole-3-carboxylic Acid]: the midpoint of the response in test [1], the EC50, lay at 288 nM. Further, at FXR LBD, GST, the maximum response (Emax) came to 151% and the EC50 is 83 nM.

Values taken from patent publication US20220227745A1, “Compounds For Modulating FXR” (NANJING RUIJIE PHARMA TECH CO., LTD., priority 2019, published 2022).
